Data reported in US12233060B2, “Inhibitors of Ataxia-Telangiectasia Mutated and Rad3-related protein kinase (ATR) for use in methods of treating cancer” (THE INSTITUTE OF CANCER RESEARCH: ROYAL CANCER HOSPITAL, priority 2016, dated 2025).

Columns and labels:
[1] = test system: HCT116 ARID1A+/+ and ARID1A−/− cells; assay: PARP cleavage western blot; type: cell-based, human; conditions: 24 hours exposure; camptothecin 1 uM positive control
Experimental: FIG. 3. In vivo ARID1A/ATR synthetic lethality. A. Schematic of VX-970 therapy experiment in mice bearing established HCT116 ARID1A^+/+ and ARID1A^−/− xenografts. Cells were inoculated subcutaneously into nude mice and tumors allowed to establish for 10 days. Mice were then randomized to treatment regimens of either VX-970 (60 mg/kg, 4× weekly by oral gavage) or vehicle. Mice were then treated for a subsequent 40 days. Tumor volume was monitored twice weekly. B. Relative tumor volume plot from (A) showing efficacy of VX-970 and selectivity for ARID1A^−/− xenografts* p=0.024, ANOVA. C. Schematic of tumor incidence experiment in mice with non-established HCT116 ARID1A^+/+ and ARID1A^−/− xenografts. […] Tumor volume was monitored twice weekly and overall tumour incidence was assessed 40 days later. […] PARP-1, cleaved PARP-1 (85 kDa fragment) and tubulin were detected by western blot. […] Caspase3/7 activity was assessed using Caspase-Glo and total cellular viability was estimated using CellTitre-Glo. Luminescence ratios for Caspase-Glo (i.e. apoptotic cells) and CellTitre-Glo (ie viable cells) was determined for each dose and normalized to DMSO treated samples. *Student's t-test, p<0.05. […]
FIG. 5. […] The percentage of cells in G2/M was measured by FACS following PI staining. […] A minimum of 50 anaphases were scored in 3 biological replicate experiments. *p=0.023, Student's t-test. […]

[2] = test system: ARID1A mutant vs ARID1A wild type tumor cell lines; assay: Five-day VX-970 sensitivity (AUC) in a diverse tumour cell line panel; type: cell-based, human; conditions: five days exposure, Student's t-test
Experimental: FIG. 2. In vitro ARID1A/ATR synthetic lethality. A. Chemical structure of VX-970. B. Western blot of ARID1A in human ARID1A isogenic HCT116 cells. C. Image of colonies in 6 well-plate clonogenic assay. HCT116 ARID1A isogenic (^+/+ and ^−/−) cell lines were exposed to increasing concentrations of the VE-821 (0, 0.1, 1 uM) and VX-970 (0, 0.01, 0.05 uM) for 14 days. D and E. Dose response clonogenic survival curve of HCT116 ARID1A isogenic (^+/+ and ^−/−) cell lines exposed to increasing concentrations of the VE-821 and VX-970 for 14 days. Error bars represent SD from triplicate experiments, ANOVA p-value of <0.0001. F. Area under curve (AUC) box whisker comparison plot for human tumor cell lines exposed to VX-970 for five days. ARID1A wild type tumor cell lines (n=15) were compared to ARID1A mutant cell lines (n=9). Student's t-test p=0.00594. G. Dose response clonogenic survival curve of mouse Arid1a isogenic ES cell lines. Experiment was performed as per (C). Error bars represent SD from triplicate experiments, ANOVA p value of <0.0001. H. Western blot of Arid1a protein expression in mouse ES Arid1a isogenic cells. […]
Short-term survival assays were performed in 384-well plates. […] Drug was added 24 h after seeding and cells were continuously exposed to the drug for five days, after which cell viability was estimated using CellTitre-Glo luminescence (Promega). […] Colonies were counted manually. […]

CNCc1ccc(-c2cc(-c3nc(-c4ccc(S(=O)(=O)C(C)C)cc4)cnc3N)on2)cc1 [VX-970, 5-[4-(Isopropylsulfonyl)phenyl]-3-(3-{4-[(methylamino)methyl]phenyl}-1,2-oxazol-5-yl)-2-pyrazinamine] was tested, and the “PARP-cleavage, ARID1A−/− vs ARID1A+/+” value [1] was “far higher levels of PARP-cleavage” and the “sensitivity of ARID1A mutant (n=9) vs non-mutant (n=15) tumour cell lines” value [2] was “significantly more sensitive to VX-970”.
